Test results taken from PubChem BioAssay (NCI).
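Grown in 96-well plates, cells were treated for 48 hours with each compound at five concentrations. Insufficient inhibition: endpoint recorded as highest concentration tested. GI50: concentration for 50% inhibition of growth. TGI denotes the concentration required for complete inhibition of growth.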

What was measured:
Assay in all cases: DTP human tumour cell line panel, 48 h; in the data active = GI50 below about 0.43 µM; inactive = the rest
[1] = test system: NCI/ADR-RES ovarian
[2] = test system: SK-MEL-28 melanoma
[3] = test system: SNB-75 CNS
[4] = test system: SW-620 colon
[5] = test system: NCI-H522 lung
[6] = test system: IGROV1 ovarian
[7] = test system: UACC-257 melanoma
[8] = test system: M14 melanoma
[9] = test system: EKVX NSCLC
[10] = test system: DU-145 prostate
[11] = test system: COLO 205 colon
[12] = test system: BT-549 breast
[13] = test system: A549 NSCLC
[14] = test system: OVCAR-5 ovarian
[15] = test system: SF-539 CNS
[16] = test system: SK-MEL-5 melanoma
[17] = test system: ACHN renal
[18] = test system: HCC-2998 colon
[19] = test system: OVCAR-4 ovarian
[20] = test system: NCI-H226 lung
[21] = test system: KM12 colon
[22] = test system: 786-0 renal
[23] = test system: A498 renal
[24] = test system: HCT-15 colon
[25] = test system: TK-10 renal
[26] = test system: HCT-116 colon
[27] = test system: RPMI-8226 leukemia
[28] = test system: NCI-H460 lung
[29] = test system: HL-60(TB) leukemia
[30] = test system: SN12C renal
[31] = test system: K-562 leukemia
[32] = test system: MCF7 breast
[33] = test system: OVCAR-8 ovarian
[34] = test system: UACC-62 melanoma
[35] = test system: NCI-H23 lung
[36] = test system: SK-MEL-2 melanoma
[37] = test system: OVCAR-3 ovarian
[38] = test system: CCRF-CEM leukemia
[39] = test system: CAKI-1 renal
[40] = test system: SF-268 CNS
[41] = test system: U251 CNS
[42] = test system: HT29 colon
[43] = test system: MDA-MB-435
[44] = test system: MOLT-4 leukemia
[45] = test system: MALME-3M melanoma
[46] = test system: SF-295 CNS
[47] = test system: LOX IMVI melanoma
[48] = test system: UO-31 renal
[49] = test system: SK-OV-3 ovarian
[50] = test system: SR leukemia
[51] = test system: T-47D breast
[52] = test system: SNB-19 CNS
[53] = test system: PC-3 prostate
[54] = test system: HOP-92 NSCLC
[55] = test system: MDA-MB-231 breast
[56] = test system: HS 578T breast
[57] = test system: HOP-62 NSCLC

COc1cc(C#N)cc(OC)c1OCCOCCOc1c(OC)cc(C#N)cc1OC
78.4 µM: TGI [54]
73.2 µM: TGI [12]
85.7 µM: TGI [29]
inactive: GI50 [1] 24.8 µM | GI50 [2] > 100 µM | GI50 [3] > 100 µM | GI50 [4] > 100 µM | GI50 [5] 31.2 µM | GI50 [6] 89.2 µM | GI50 [7] 99.1 µM | GI50 [8] 52.2 µM | GI50 [9] > 100 µM | GI50 [10] > 100 µM | GI50 [11] 37.2 µM | GI50 [12] 25.3 µM | GI50 [13] > 100 µM | GI50 [14] > 100 µM | GI50 [15] > 100 µM | GI50 [16] 69.8 µM | GI50 [17] > 100 µM | GI50 [18] > 100 µM | GI50 [19] 73.5 µM | GI50 [20] 81.2 µM | GI50 [21] 51.7 µM | GI50 [22] > 100 µM | GI50 [23] 35.4 µM | GI50 [24] > 100 µM | GI50 [25] > 100 µM | GI50 [26] > 100 µM | GI50 [27] 29.9 µM | GI50 [28] 84.6 µM | GI50 [29] 19 µM | GI50 [30] > 100 µM | GI50 [31] 11.7 µM | GI50 [32] 63.4 µM | GI50 [33] 51.3 µM | GI50 [34] 33.1 µM | GI50 [35] > 100 µM | GI50 [36] > 100 µM | GI50 [37] > 100 µM | GI50 [38] 38.8 µM | GI50 [39] > 100 µM | GI50 [40] > 100 µM | GI50 [41] > 100 µM | GI50 [42] > 100 µM | GI50 [43] > 100 µM | GI50 [44] 21.3 µM | GI50 [45] 58.1 µM | GI50 [46] 84.9 µM | GI50 [47] > 100 µM | GI50 [48] 26.4 µM | GI50 [49] > 100 µM | GI50 [50] 4.33 µM | GI50 [51] 21.7 µM | GI50 [52] 94.4 µM | GI50 [53] 31.9 µM | GI50 [54] 10.3 µM | GI50 [55] 88.9 µM | GI50 [56] > 100 µM | GI50 [57] > 100 µM
> 100 µM: TGI [1] | TGI [2] | TGI [3] | TGI [4] | TGI [5] | TGI [6] | TGI [7] | TGI [8] | TGI [9] | TGI [10] | TGI [11] | TGI [13] | TGI [14] | TGI [15] | TGI [16] | TGI [17] | TGI [18] | TGI [19] | TGI [20] | TGI [21] | TGI [22] | TGI [23] | TGI [24] | TGI [25] | TGI [26] | TGI [27] | TGI [28] | TGI [30] | TGI [32] | TGI [33] | TGI [34] | TGI [35] | TGI [36] | TGI [37] | TGI [38] | TGI [39] | TGI [40] | TGI [41] | TGI [42] | TGI [43] | TGI [44] | TGI [45] | TGI [46] | TGI [47] | TGI [48] | TGI [49] | TGI [50] | TGI [51] | TGI [52] | TGI [53] | TGI [55] | TGI [56] | TGI [57]
37.1 µM: TGI [31]
